In patent US20250282799A1, “SUBSTITUTED PYRIDO[4,3-d]PYRIMIDINES AS KRAS MODULATORS” (Alterome Therapeutics, Inc., priority 2023, published 2025) one finds IC50 data, which are given here for seven compounds.

The IC50 is the concentration needed to halve the response being measured. High values mean weaker potency in that assay, low ones greater potency in that assay.

Structures are written as SMILES.

The test has as its system KRAS G12V dependent lung adenocarcinoma cell line, NCI-H441. The experiment in a line: Cellular pERK (Thr202/Tyr204) FRET/HTRF assay. Type of test: cell-based. The note with it: Homo sapiens, NCI-H441, cellular pERK (Thr202/Tyr204) HTRF, NCI-H441 cells. The procedure, abridged: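 Adherent NCI-H441 cells, plated the previous night, receive test compound for one hour at 37 °C. They are then lysed with a buffer containing phosphatase inhibitors and incubated at room temperature with Eu3+-cryptate and d2 labelled anti-pERK antibodies. HTRF signal gives IC50 by curve fitting.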
On the technique in general: TR-FRET usually uses a lanthanide donor and a delayed reading to cut background.

Compound `[2H]C([2H])(F)Oc1c(F)ccc2cccc(-c3ncc4c(N5CCOC[C@H]6[C@H](F)[C@H]65)nc(OC[C@]56C/C(=C/F)CN5CCC65CC5)nc4c3F)c12` [Example 386, (1S,7S,8S)-8-fluoro-2-(8-fluoro-7-(7-fluoro-8-(fluoromethoxy-d2)naphthalen-1-yl)-2-(((R,Z)-6′-(fluoromethylene)tetrahydrospiro[cyclopropane-1,1′-pyrrolizin]-7a′(5′H)-yl)methoxy)pyrido[4,3-d]pyrimidin-4-yl)-5-oxa-2-azabicyclo[5.1.0]octane] yielded an IC50 of less than 50 nM.

`[2H]C([2H])(F)Oc1c(F)ccc2cc(N)cc(-c3ncc4c(N5CCOC[C@H]6[C@H](F)[C@H]65)nc(OC[C@]56CC(=C)CN5CCC65CC5)nc4c3F)c12` [Example 387, 6-fluoro-4-(8-fluoro-4-((1S,7S,8S)-8-fluoro-5-oxa-2-azabicyclo[5.1.0]octan-2-yl)-2-(((R)-6′-methylenetetrahydrospiro[cyclopropane-1,1′-pyrrolizin]-7a′(5′H)-yl)methoxy)pyrido[4,3-d]pyrimidin-7-yl)-5-(fluoromethoxy-d2)naphthalen-2-amine] gave an IC50 of less than 50 nM.

Turning to `[2H]C([2H])(F)Oc1c(F)ccc2cc(N)cc(-c3ncc4c(N5CCOC[C@H]6[C@H](F)[C@H]65)nc(OC[C@]56C/C(=C\F)CN5CCC65CC5)nc4c3F)c12` [Example 388, 6-fluoro-4-(8-fluoro-4-((1S,7S,8S)-8-fluoro-5-oxa-2-azabicyclo[5.1.0]octan-2-yl)-2-(((R,E)-6′-(fluoromethylene)tetrahydrospiro[cyclopropane-1,1′-pyrrolizin]-7a′(5′H)-yl)methoxy)pyrido[4,3-d]pyrimidin-7-yl)-5-(fluoromethoxy-d2)naphthalen-2-amine], the IC50 is less than 50 nM.

Take `[2H]C([2H])(F)Oc1c(F)ccc2cc(N)cc(-c3ncc4c(N5CCOC[C@H]6[C@H](F)[C@H]65)nc(OC[C@]56C/C(=C/F)CN5CCC65CC5)nc4c3F)c12` [Example 389, 6-fluoro-4-(8-fluoro-4-((1S,7S,8S)-8-fluoro-5-oxa-2-azabicyclo[5.1.0]octan-2-yl)-2-(((R,Z)-6′-(fluoromethylene)tetrahydrospiro[cyclopropane-1,1′-pyrrolizin]-7a′(5′H)-yl)methoxy)pyrido[4,3-d]pyrimidin-7-yl)-5-(fluoromethoxy-d2)naphthalen-2-amine]: the IC50 was less than 50 nM.

In turn, `C=C1CN2CCC[C@@]2(COc2nc(N3CCCC[C@H]4[C@H](F)[C@H]43)c3cnc(-c4cc(N)c(F)c(C)c4C(F)(F)F)c(F)c3n2)C1` [Example 392, 2-fluoro-5-(8-fluoro-4-((1S,7R,8S)-8-fluoro-2-azabicyclo[5.1.0]octan-2-yl)-2-(((S)-2-methylenetetrahydro-1H-pyrrolizin-7a(5H)-yl)methoxy)pyrido[4,3-d]pyrimidin-7-yl)-3-methyl-4-(trifluoromethyl)aniline] gave an IC50 of 50 to 500 nM.

With `C=C1CN2CCC[C@@]2(COc2nc(N3CCCC[C@@H]4[C@@H](F)[C@@H]43)c3cnc(-c4cc(N)c(F)c(C)c4C(F)(F)F)c(F)c3n2)C1` [Example 393, 2-fluoro-5-(8-fluoro-4-((1R,7S,8R)-8-fluoro-2-azabicyclo[5.1.0]octan-2-yl)-2-(((S)-2-methylenetetrahydro-1H-pyrrolizin-7a(5H)-yl)methoxy)pyrido[4,3-d]pyrimidin-7-yl)-3-methyl-4-(trifluoromethyl)aniline], the IC50 is 500 to 10000 nM.

The compound `Cc1c(F)c(N)cc(-c2ncc3c(N4CCCC[C@H]5[C@H](F)[C@H]54)nc(OC[C@@]45CCCN4CC(=C(F)F)C5)nc3c2F)c1C(F)(F)F` [Example 394, 5-(2-(((S)-2-(difluoromethylene)tetrahydro-1H-pyrrolizin-7a(5H)-yl)methoxy)-8-fluoro-4-((1S,7R,8S)-8-fluoro-2-azabicyclo[5.1.0]octan-2-yl)pyrido[4,3-d]pyrimidin-7-yl)-2-fluoro-3-methyl-4-(trifluoromethyl)aniline] came in with an IC50 of 500 to 10000 nM.
